Usually IC50 stands for the point on the concentration scale where inhibition reaches its midpoint.

Assay type in all cases: cell-based
The subject of assay [1] is MCF-7 (human breast carcinoma cell line). The assay can be described thus: CCK-8 antiproliferative assay, MCF-7. The settings on record: MCF7, 48 h, read-out: IC50, Mean ± SE, MCF-7. For orientation: Tetrazolium assays rely on reduction of a dye to a coloured formazan, in cell work by metabolically active cells.
Assay [2] has as its system Caski (human epithelial cervical cancer cell line). The assay can be described thus: CCK-8 antiproliferative assay, Caski. The settings on record: Ca-Ski, 48 h, read-out: IC50, Mean ± SE, Caski.
Assay [3] has as its system A2780 (human ovarian cancer cell line). The assay is described as follows: CCK-8 cytotoxicity, A2780. The settings on record: 48 h, read-out: IC50, Mean ± SE, A2780. How it is done: Besides the high cytotoxicity, drug resistance is the other limiting factor of chemotherapeutics. In this study, the cytotoxicities of compound 14b towards five kinds of drug-resistant cancer cell lines were also evaluated. Except three kinds of cell lines that are resistant to three drugs commonly used in clinical practice, two kinds of cell lines that are resistant to MTAs were also evaluated.
A549 (non-small-cell-lung cancer cell line), Caski (human epithelial cervical cancer cell line), HepG2 (human liver carcinoma cell line), MCF-7 (human breast carcinoma cell line), C42B (human prostate cancer line C42B), L-02 (human normal hepatocytes), RWPE-1 (human prostate epithelial cells) and MCF-10A (human normal mammary epithelial cells) were obtained from National Collection of Authenticated Cell Cultures (Shanghai, China). […]
After 24 h, the medium containing different concentrations of tested compounds were added for another 48 h. […] The optical density was recorded with a microplate reader at 570 nm (Thermo Scientific, Varioskan LUX). All the experiments were repeated independently at least three times and the IC50 values were calculated […]

Take `COc1ccc(C(=O)c2ccc3c(ccn3C)c2)c2c1C=CC(C)(C)O2` [compound 14b, (5-methoxy-2,2-dimethyl-2H-chromen-8-yl)(1-methyl-1H-indol-5-yl)methanone]: the IC50 in assay [1] stood at 27 ± 6 nM; in assay [2] it was 37 ± 3 nM; in assay [3] it was 36 ± 4 nM.

These data come from article PMC9921564, “Novel Indole-Containing Hybrids Derived from Millepachine: Synthesis, Biological Evaluation and Antitumor Mechanism Study” (Molecules, 2023).
